Experimental data as given in patent publication US20090048269A1 (AstraZeneca AB, priority 2007, published 2009).

Key:
human ALK5 [1] = molecular target: T1, human ALK5 (Homo sapiens, UniProt P36897); assay: ALK5 Enzyme Assay 1; type: biochemical; parameters: 6His tagged ALK5 protein (amino acids 162-503) expressed in insect cells; 6His; made in house; host or cells: insect cells; conditions: read-out: EAA: activity (μM) using Enzyme Assay 1
T1 sequence (P36897 162-503): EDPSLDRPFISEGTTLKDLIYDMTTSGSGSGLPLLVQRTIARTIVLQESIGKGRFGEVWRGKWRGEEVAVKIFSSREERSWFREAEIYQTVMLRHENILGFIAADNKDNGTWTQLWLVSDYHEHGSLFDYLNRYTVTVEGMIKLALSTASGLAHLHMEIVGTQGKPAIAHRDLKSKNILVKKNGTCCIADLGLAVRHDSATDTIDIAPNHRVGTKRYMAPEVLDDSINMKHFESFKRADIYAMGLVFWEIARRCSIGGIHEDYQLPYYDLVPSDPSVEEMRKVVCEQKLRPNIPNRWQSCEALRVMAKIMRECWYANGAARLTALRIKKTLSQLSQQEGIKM
Description: This assay measures the ability of a compound to bind to and inhibit the activity of ALK5 protein in vitro. […] Assay measurements were performed in assay buffer comprising 60 mM HEPES pH 7.4, 3 mM MgCl2, 3 mM MnCl2, 3 μM Na orthovanadate, 1.2 mM DTT and 0.05% PEG2000. […] Reactions were performed in the presence of 200 μg/mL casein (Sigma-Aldrich C4765-10ML), 200 ng/mL ALK5, 0.5 μM ATP (Sigma-Aldrich A7699), 1 μCi/mL γ-33P ATP. Following addition of casein, ATP and compound, reactions were initiated by adding ALK5 enzyme and reactions run for 90 minutes. After incubation reactions were terminated by addition of 20 μL per well of 50% orthophosphoric acid. 20 minutes after addition of 70% v/v TCA, precipitated protein was transferred to GF/C 96 well plates using a Tomtec harvester with 1.5% orthophosphoric acid. […] All reactions were performed under linear kinetics.

human ALK5 [2] = molecular target: T1, human ALK5; assay: ALK5 Enzyme Assay 2 (fluorescence polarisation probe displacement); type: binding; parameters: 6His tagged human ALK5 (residues162-503) was grown and purified from insect cells; 6His; made in house; host or cells: insect cells; conditions: read-out: EAA2: activity (μM) using Enzyme Assay 2
Outline: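 Recombinant ALK5 (3 μg/mL) incubated with test compound in 50 mM HEPES pH7.4, 10 mM MgCl2, 1 mM DTT, 0.01% CHAPS. Displacement of a fluorescent quinazoline-based ALK5 probe (50 nM final) in presence of 1 μM ATP read by fluorescence polarisation.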

[3] = system: TGFβ1 mediated smad2 nuclear translocation; assay: Cell Assay (Smad2 Redistribution Assay, MDA-MB-468 Smad2-EGFP cells); type: cell-based; conditions: Homo sapiens, read-out: CAA: cell assay activity
Description: Ligand mediated translocation of R-Smads (Smads 1,2,3,5,8) is a well-documented phenomenon in a variety of cell types. (Derynck, R. and Zhang, Y., 2003, Nature, 425, 577-584, Shi, Y. and Massague, J., 2003, Cell, 113, 685-700). Specifically TGFβ1 and TGFβ3 cause phosphorylation and nuclear translocation of Smad2 and Smad3 transcription factors. Thus compound inhibition of TGFβsignalling can be estimated by measuring cellular distribution of Smad2 or 3 under activated TGFβpathway. The Smad2 Redistribution™ Assay (Fisher BioImage ApS) was used to assess in vitro cellular activity of compounds of interest. The breast adenocarcinoma MDA-MB-468 parent cell line was used to create a recombinant cell line, MDA-MB-468 PS213 I GScl4C8 containing Smad2 fused to the C-terminus of enhanced green fluorescent protein (Smad2-EGFP). This enables monitoring of cellular distribution of Smad2 using high throughput fluorescence microscopy.
This assay measures the ability of compounds to inhibit TGFβ1 mediated smad2 nuclear translocation. Compounds dose ranges were created by diluting in 100% DMSO and then further into assay media (RPMI1640, 1% FCS, 10 mM HEPES pH 7.4). Cells were plated in 96 well Packard View plates at 8×10^3 per well in 100 μL RPMI1640, 10% FCS, 0.5 mg/mL geneticin and grown for 48 hrs. […] Plates were then read on an ArrayScan Vti instrument to determine nuclear to cytoplasmic staining. […]

[4] = IT6 (abbreviation not defined)

SMILES	IC50 (human ALK5 [1])	IC50 (human ALK5 [2])	IC50 [3]	IT6 [4]
Cc1cc(Oc2ccnc(Nc3ccc(F)cc3)c2)c(-c2ccccn2)nc1C [Example 10, 4-(5,6-Dimethyl-2-pyridin-2-yl-pyridin-3-yl)oxy-N-(4-fluorophenyl)pyridin-2-amine]	0.017 µM	0.0883 µM	–	–
Cc1cc(Oc2ccnc(Nc3cc(F)ccc3F)c2)c(-c2ccccn2)nc1C [Example 31, N-(2,5-Difluorophenyl)-4-(5,6-dimethyl-2-pyridin-2-yl-pyridin-3-yl)-oxy-pyridin-2-amine]	0.0274 µM	0.0312 µM	–	–
COc1cc(Nc2cc(Oc3ccc(C)nc3-c3cscc3C)ccn2)cc(OC)c1OC [Example 46, 4-[6-Methyl-2-(4-methylthiophen-3-yl)pyridin-3-yl]oxy-N-(3,4,5-trimethoxyphenyl)pyridin-2-amine]	0.0153 µM	0.0175 µM	–	–
COc1cc(Nc2cc(Oc3cccnc3-c3cccc(C)n3)ccn2)cc(OC)c1OC [Example 1, 4-[2-(6-Methylpyridin-2-yl)pyridin-3-yl]oxy-N-(3,4,5-trimethoxy-phenyl)pyridin-2-amine]	0.0783 µM	0.089 µM	–	–
COc1cc(Nc2cc(Oc3cc(C)c(C)nc3-c3nc(C)c(C)s3)ccn2)cc(OC)c1OC [Example 4, {4-[2-(4,5-Dimethyl-thiazol-2-yl)-5,6-dimethyl-pyridin-3-yloxy]-pyridin-2-yl}-(3,4,5-trimethoxy-phenyl)-amine]	0.00951 µM	0.056 µM	–	–
COc1cc(Nc2cc(Oc3ccc(C)nc3-c3cccc(C)c3)ccn2)cc(OC)c1OC [Example 57, 4-[6-Methyl-2-(3-methylphenyl)pyridin-3-yl]oxy-N-(3,4,5-trimethoxyphenyl)-pyridin-2-amine]	0.0154 µM	–	90.4 nM	–
COc1cc(Nc2cc(Oc3ccc(C)nc3-c3cccc(F)c3)ccn2)cc(OC)c1OC [Example 56, 4-[2-(3-Fluoro-phenyl)-6-methyl-pyridin-3-yl]oxy-N-(3,4,5-trimethoxy-phenyl)pyridin-2-amine]	0.00379 µM	0.0795 µM	–	–

Second part, led by results:

IC50 (human ALK5 [1])	IC50 (human ALK5 [2])	IC50 [3]	SMILES	IT6 [4]
0.0073 µM	0.0418 µM	–	Cc1cc(Oc2ccnc(Nc3cccc(Cl)c3)c2)c(-c2ccccn2)nc1C [Example 12, N-(3-Chlorophenyl)-4-(5,6-dimethyl-2-pyridin-2-yl-pyridin-3-yl)-oxy-pyridin-2-amine]	–
0.0166 µM	0.0184 µM	–	Cc1cc(Oc2ccnc(Nc3cccc(F)c3)c2)c(-c2ccccn2)nc1C [Example 29, N-(3-Fluorophenyl)-4-(5,6-dimethyl-2-pyridin-2-yl-pyridin-3-yl)-oxy-pyridin-2-amine]	–
–	0.348 µM	–	CNC(=O)c1nc(C)ccc1Oc1ccnc(Nc2ccccc2)c1 [Example 97, 3-(2-Anilinopyridin-4-yl)oxy-N,6-dimethylpyridine-2-carboxamide]	0.9458
